Measurements as given in patent publication US11584762B1, “Near-infrared fluorescent indicators for lysosome and application thereof” (DALIAN UNIVERSITY OF TECHNOLOGY, priority 2022, dated 2023).

What was measured:
[1] = Photophysical properties in acetonitrile (absorption, emission, extinction coefficient, quantum yield); type: physicochemical
Experimental: The photophysical properties of compounds D1, D2, D25 and D26 were investigated. Compounds D1, D2, D25 and D26 were dissolved in DMSO to obtain a 1 mM stock solution. The stock solution was further diluted with acetonitrile to obtain a 1 μM testing solution, of which 1 μL trifluoroacetic acid (0.1% by volume) was added. The absorption spectrum, emission spectrum, quantum yield and molar extinction coefficient of these testing solutions were measured. The absorption spectrum was recorded on Agilent 8453 UV-Vis-Spectrophotometer, and the fluorescent spectrum was recorded on an Agilent fluorescence spectrometer. The maximum absorption spectrum (λab), the maximum emission spectrum (λem), the molar extinction coefficient (ε), and the fluorescence quantum yield (Φ^1) of compounds D1, D2, D25 and D26 were shown in Table 1.
(§1) The photophysical properties of compounds D6, D15, D20, D22, D46 and D51 are provided in Table 2, following a similar testing method as example 14 and example 15. […] It can be seen that such property is in favor of confocal imaging of lysosomes without PBS washing.

[2] = Emission in 2 mM CTAB (pH 3) or H2O (pH 7); type: physicochemical; conditions: for Fluorescence emission in 2 mM CTAB at pH 3 / Fluorescence emission in water at pH 7: Table 2; for Emission in 2 mM CTAB at pH 3 / Fluorescence in water at pH 7: FIG. 1, 1 μM; for Emission in 2 mM CTAB at pH 3: pH 3, lysosome-like microenvironment; for Fluorescence in water at pH 7: H2O
Experimental: The properties of compounds D1, D2, D25 and D26 were investigated. Compounds D1, D2, D25 and D26 were dissolved in DMSO to obtain a 1 mM stock solution. The stock solution was further diluted with 2 mM CTAB (pH 3) or H2O (pH 7) to obtain a 1 μM testing solution. The absorption spectrum and emission spectrum of the testing solution were measured. The evaluated method of photophysical properties was the same as example 13.
CTAB (Hexadecyl trimethyl ammonium bromide) is a cationic surfactant with a critical micelle concentration of 0.9 mM. CTBA exists in the form of micelles in a 2 mM solution of CTAB, which not only helps dissolve dye molecules but also simulates the acidic microenvironment of lysosomes. […] It is preliminarily determined that such property is in favor of confocal imaging of lysosomes without PBS washing.
as §1

[3] = tested on: lysosomes of RAW 264.7 cells; assay: Confocal imaging of live cell lysosomes co-stained with DND-26; type: cell-based; conditions: co-stain 1 μM DND-26, PBS washed
Experimental: The fluorescent imaging of compounds D1, D6, D22 and D25. After incubating for 24 hours in a cell incubator with 5% CO2 at 37° C., RAW 264.7 cells were incubated with 1 μM D1 or 1 μM D6 for 5 min, or incubated with 1 μM D22 or 1 μM D25 for 60 min, then incubated with 1 μM DND-26 which is green lysosome probe for 5 min, washed three times with PBS, then imaged using a confocal microscope.
The fluorescence image of compounds D15, D20, D46 and D51. After incubating for 24 hours in a cell incubator with 5% CO2 at 37° C., RAW 264.7 cells were incubated with 1 μM D15 or 1 μM D20 for 5 min, or incubated with 1 μM D46 or 1 μM D51 for 60 min, then incubated with 1 μM DND-26 for 5 min, washed three times with PBS, and then imaged using a confocal microscope.

[4] = Confocal imaging of stained vesicles at pH 4.0 and pH 7.4; conditions: 60 min
Experimental: We further investigate the targeting feature by imaging vesicles stained with D25 at pH 4.0 and pH 7.4.
The “droplet transfer” method was used to prepare vesicles composed of PC/Chol molar ratios of 7:3, following six steps as below: 1) Prepare 200 mM glucose aqueous solution and sucrose aqueous solution respectively. 2) Hydrophobic phase (0.3 mM PC in decane+0.3 mM CL in decane for PC/CL). 3) The hydrophobic phase was prepared by adding PC (0.3 mM) and possibly other lipids (SM and/or Chol) in decane. 4) Pipette the aqueous phase consisting of 20 μL of sucrose solution and the hydrophobic phase consisting of 600 μL PC/CL into a 1.5 ml centrifuge tube and shake them well. 5) Centrifuge the tube, then remove the mineral oil and wash the GUVs to remove excess solutes. 6) Suspend 30 μL of the pellet in 20 μL of 200 mM glucose solution. 7) Pipette 20 μL onto a glass slide and observe with a confocal microscope and fluorescence lifetime microscope.
Method for vesicles imaging, 30 μL of the vesicles was diluted with 20 μL of 200 mM glucose solution, then stained with D25 in pH 4 PBS (or in pH 7.4 PBS) for 60 min and imaged with a confocal microscope.

[5] = tested on: lysosomes of RAW 264.7 cells; assay: Confocal imaging of lysosomes after chloroquine stimulation; type: cell-based; conditions: 1 μM, co-staining D25 and DND-26, 20 µM chloroquine, within 5 min
Experimental: The fluorescence imaging of compound D25. After incubating for 24 hours in a cell incubator with 5% CO2 at 37° C., RAW 264.7 cells were incubated with 1 μM D25 for 60 min, then incubated with 1 μM DND-26 for 5 min, washed three times with PBS, and then imaged using a confocal microscope after adding 20 µM chloroquine. Chloroquine can cause protons to escape from lysosomes, so it can be used to raise the pH of the lysosomes.

[6] = tested on: lysosomal membrane of RAW 264.7 cells; assay: STED-based super-resolution imaging; type: cell-based; conditions: 250 nM for 60 min
Experimental: We used D25 as a representative to evaluate its ability to perform STED-based super-resolution imaging. After incubating for 24 hours in a cell incubator with 5% CO2 at 37° C., RAW 264.7 cells were stained with 250 nM D25 for 60 min and imaged using STED based microscope after replacing the staining solution with fresh MEM.

[7] = tested on: lysosomes of RAW 264.7 cells; assay: Confocal imaging of live cell lysosomes without washing; type: cell-based; conditions: 100 nM for 60 min, no washing
Experimental: The fluorescence image of compound D25. After incubating for 24 hours in a cell incubator with 5% CO2 at 37° C., RAW 264.7 cells were incubated with 100 nM D25 for 60 min and then imaged using a confocal microscope.

[8] = Table 1, acetonitrile, 1 μM, trifluoroacetic acid 0.1% by volume

In the case of `CCOC(=O)CCC1=C2C(C)=CC(C)=[N+]2[B-](F)(F)n2c(C=Cc3ccc4c(c3)c3ccccc3n4Cc3cn(CCCN(C)CCN(C)C)nn3)cc(C)c21` [D22], the “Φ^1 (fluorescence quantum yield)” value ([1]; Table 2, in acetonitrile) is reported as 0.81, the “ε (molar extinction coefficient)” value ([1]; Table 2, in acetonitrile) is reported as 10.8 M^−1 · cm^−1 × 10^4 and the “λab (maximum absorption)” value ([1]; Table 2, in acetonitrile) is reported as 611 nm. For the same compound, the “λem (maximum emission)” value ([1]; Table 2, in acetonitrile) was 661 nm, the “Fluorescence emission in 2 mM CTAB at pH 3” value [2] was “Stable” and the “Fluorescence emission in water at pH 7” value [2] was “No”. The “Lysosome targeting in confocal images” value ([3]; 1 μM for 60 min) was “can specifically target lysosomes”.
With `CCOC(=O)CCC1=C2C(C)=CC(/C=C/c3ccc4c(c3)c3ccccc3n4Cc3cn(CCCN(C)CCN(C)C)nn3)=[N+]2[B-](F)(F)n2c(/C=C/c3ccc4c(c3)c3ccccc3n4Cc3cn(CCCN(C)CCN(C)C)nn3)cc(C)c21` [D46] the “Φ^1 (fluorescence quantum yield)” value ([1]; Table 2, in acetonitrile) was 0.89, the “ε (molar extinction coefficient)” value ([1]; Table 2, in acetonitrile) was 11.0 M^−1 · cm^−1 × 10^4 and the “λab (maximum absorption)” value ([1]; Table 2, in acetonitrile) was 659 nm. For the same compound, the “λem (maximum emission)” value ([1]; Table 2, in acetonitrile) was 675 nm, the “Fluorescence emission in 2 mM CTAB at pH 3” value [2] was “Stable” and the “Fluorescence emission in water at pH 7” value [2] was “No”. For the same compound, the “Lysosome targeting in confocal images” value ([3]; 1 μM for 60 min) was “can specifically target lysosomes”.
In the case of `COc1ccc(C2=C3C(C)=C(Cl)C(C=Cc4ccc5c(c4)c4ccccc4n5Cc4cn(CCN5CCNCC5)nn4)=[N+]3[B-](F)(F)n3c(C=Cc4ccc5c(c4)c4ccccc4n5Cc4cn(CCN5CCNCC5)nn4)c(Cl)c(C)c32)cc1` [D51], the “Φ^1 (fluorescence quantum yield)” value ([1]; Table 2, in acetonitrile) is reported as 0.79, the “ε (molar extinction coefficient)” value ([1]; Table 2, in acetonitrile) is reported as 11.1 M^−1 · cm^−1 × 10^4 and the “λab (maximum absorption)” value ([1]; Table 2, in acetonitrile) is reported as 689 nm. The “λem (maximum emission)” value ([1]; Table 2, in acetonitrile) was 728 nm, the “Fluorescence emission in 2 mM CTAB at pH 3” value [2] was “Stable” and the “Fluorescence emission in water at pH 7” value [2] was “No”. For the same compound, the “Lysosome targeting in confocal images” value ([3]; 1 μM for 60 min) was “can specifically target lysosomes”.
For `CC1=CC(C)=[N+]2C1=C(c1ccccc1)c1c(C)cc(C=Cc3ccc4c(c3)c3ccccc3n4Cc3cn(CCN(C)CCN(C)C)nn3)n1[B-]2(F)F` [D1], the “Φ^1 (fluorescence quantum yield)” value ([1]; Table 1, acetonitrile) was 0.83, the “ε (molar extinction coefficient)” value ([1]; Table 1, acetonitrile) was 7.5 M^−1 · cm^−1 × 10^4 and the “λab (maximum absorption)” value [1, 8] was 581 nm. For the same compound, the “λem (maximum emission)” value [1, 8] was 603 nm, the “Emission in 2 mM CTAB at pH 3” value [2] was “stable emission” and the “Fluorescence in water at pH 7” value [2] was “almost no fluorescence”. The “Lysosome targeting in confocal images” value ([3]; 1 μM for 5 min) was “can specifically target lysosomes”.
With `CC1=C(Cl)C(C)=[N+]2C1=C(c1ccccc1)c1c(C)c(Cl)c(C=Cc3ccc4c(c3)c3ccccc3n4Cc3cn(CCN(C)CCN(C)C)nn3)n1[B-]2(F)F` [D2] the “Φ^1 (fluorescence quantum yield)” value ([1]; Table 1, acetonitrile) was 0.63, the “ε (molar extinction coefficient)” value ([1]; Table 1, acetonitrile) was 10.4 M^−1 · cm^−1 × 10^4 and the “λab (maximum absorption)” value [1, 8] was 604 nm. For the same compound, the “λem (maximum emission)” value [1, 8] was 650 nm, the “Emission in 2 mM CTAB at pH 3” value [2] was “stable emission” and the “Fluorescence in water at pH 7” value [2] was “almost no fluorescence”.
With `CC1=CC(C=Cc2ccc3c(c2)c2ccccc2n3Cc2cn(CCN(C)CCN(C)C)nn2)=[N+]2C1=C(c1ccccc1)c1c(C)cc(C=Cc3ccc4c(c3)c3ccccc3n4Cc3cn(CCN(C)CCN(C)C)nn3)n1[B-]2(F)F` [D25] the “Fluorescence of stained vesicles at pH 4” value ([4]; pH 4 PBS) was “intense fluorescence”, the “Fluorescence of stained vesicles at pH 7.4” value ([4]; pH 7.4 PBS) was “weak fluorescence” and the “Change of fluorescence intensity after adding chloroquine” value [5] was “only changed slightly”. The “Φ^1 (fluorescence quantum yield)” value ([1]; Table 1, acetonitrile) was 0.94, the “ε (molar extinction coefficient)” value ([1]; Table 1, acetonitrile) was 9.2 M^−1 · cm^−1 × 10^4 and the “λab (maximum absorption)” value [1, 8] was 664 nm. The “λem (maximum emission)” value [1, 8] was 684 nm, the “Localization in super-resolution image” value [6] was “localized in the lysosomal membrane” and the “Lysosome imaging without washing” value [7] was “can be used for lysosome images without washing”. The “Emission in 2 mM CTAB at pH 3” value [2] was “stable emission”, the “Fluorescence in water at pH 7” value [2] was “almost no fluorescence” and the “Lysosome targeting in confocal images” value ([3]; 1 μM for 60 min) was “can specifically target lysosomes”.
With `CC1=C(Cl)C(C)=[N+]2C1=C(c1ccc(C)cc1)c1c(C)c(Cl)c(C=Cc3ccc4c(c3)c3ccccc3n4Cc3cn(CCN4CCNCC4)nn3)n1[B-]2(F)F` [D6] the “Φ^1 (fluorescence quantum yield)” value ([1]; Table 2, in acetonitrile) was 0.73, the “ε (molar extinction coefficient)” value ([1]; Table 2, in acetonitrile) was 8.1 M^−1 · cm^−1 × 10^4 and the “λab (maximum absorption)” value ([1]; Table 2, in acetonitrile) was 590 nm. For the same compound, the “λem (maximum emission)” value ([1]; Table 2, in acetonitrile) was 615 nm, the “Fluorescence emission in 2 mM CTAB at pH 3” value [2] was “Stable” and the “Fluorescence emission in water at pH 7” value [2] was “No”. For the same compound, the “Lysosome targeting in confocal images” value ([3]; 1 μM for 5 min) was “can specifically target lysosomes”.
For `CC1=C(Cl)C(C=Cc2ccc3c(c2)c2ccccc2n3Cc2cn(CCN(C)CCN(C)C)nn2)=[N+]2C1=C(c1ccccc1)c1c(C)c(Cl)c(C=Cc3ccc4c(c3)c3ccccc3n4Cc3cn(CCN(C)CCN(C)C)nn3)n1[B-]2(F)F` [D26], the “Φ^1 (fluorescence quantum yield)” value ([1]; Table 1, acetonitrile) was 0.72, the “ε (molar extinction coefficient)” value ([1]; Table 1, acetonitrile) was 11.3 M^−1 · cm^−1 × 10^4 and the “λab (maximum absorption)” value [1, 8] was 692 nm. For the same compound, the “λem (maximum emission)” value [1, 8] was 732 nm, the “Emission in 2 mM CTAB at pH 3” value [2] was “stable emission” and the “Fluorescence in water at pH 7” value [2] was “almost no fluorescence”.
